Data published in patent publication US20050152967A1, “Dynamic variable release” (PFab, LP, priority 2003, published 2005).

Legend:
[1] = accelerated stability of capsules (dissolution and assay over time); type: physicochemical
Description: The material was placed on accelerated stability.
Stability: Capsules were studied for stability.

[2] = water and alcohol; cited from earlier work
[3] = in vitro dissolution (acid/base dissolution bath, USP apparatus, HPLC); type: physicochemical
Description: The amount of active dissolution over time, e.g., guaifenesin and/or phenylephrine in the tablets or capsules disclosed herein below may be tested as follows. Briefly, in vitro guaifenesin or phenylephrine release may be determined using an acid/base dissolution bath, e.g., a standard USP 23/NF Drug Release Apparatus. Dissolution vessels of a USP calibrated dissolution bath, equipped with shafts and paddles, are filled with 675 ml of 0.1N hydrochloric acid at 37.0 degrees Centigrade. The bath and vessels are maintained at a temperature of 37.0±0.5 degrees Centigrade throughout a standard 7 hour dissolution test. […] One tablet or capsule is dropped into each vessel.
At the testing intervals, e.g., 1 minute, 10, 10, 30, 45, 60 or 90 minutes, 2, 3, 4, 6, 7, 9 or 12 hour testing intervals, an aliquot, e.g., 5 mls of dissolution solution is withdrawn from each vessel, filtered (e.g., through a 10-22 micron polyethylene filter) and tested using an HPLC. To stop the dissolution a strong base may be added to the sample, e.g., 0.2M sodium phosphate tribasic to increase the pH of the solution to about 6.8. The percent dissolution is determined using HPLC.

potency on accelerated stability [1] | released immediately ([1]; capsules on accelerated stability) [%] | release profile for gauifenesin ([3]; sustain releasing both actives) | dissolution rate of phenylephrine ([3]; when combined with Gauifenesin DC) | SMILES | solubility [2] | release profile ([1]; capsules on accelerated stability, month to month) | release of phenylephrine ([3]; phenylephrine overcoated with immediate release gauifenesin)
stable potency | 100 | poor release profile | – | COc1ccccc1OCC(O)CO (stereo not shown) [Guaifenesin, 3(2-methoxyphenoxy)-1,2-propanediol] | soluble in water and alcohol | – | –
– | – | – | accelerated | CNC[C@@H](O)c1cccc(O)c1.Cl [Phenylephrine hydrochloride, (S)-3-hydroxy-α[(methylamino)methyl]benzenemethanol hydrochloride] | – | first order release profile consistent with an 8 hour product | slowed the release of the phenylephrine to an unacceptable level
